≈ marks a conversion by molar mass, not a printed value.
settings: buffer; pH 7.4; 6.0 h; 150.0 µM

Row | Structure (SMILES) | solubility kinetic [µg/mL]
1 | Cc1cccc(NC(=S)N2CCN(c3cccc(C(F)(F)F)c3)CC2)c1 | 1.59 (≈ 4.18 µM)
2 | Cc1cccc2c(C(=O)O)cc(-c3cccs3)nc12 | > 40
3 | O=C1CCc2cc(S(=O)(=O)Nc3ccc(F)c(Cl)c3)ccc2N1 | > 52
4 | CCOc1ccc(/C=C/c2nc3ccccc3n2S(=O)(=O)c2ccc(Br)cc2)cc1 | 0.131 (≈ 0.271 µM)
5 | O=C1CCCCc2cc(O)c(O)cc21 | > 28
6 | Cc1ccnc(NC(=S)N2CCN(c3ccc(C(F)(F)F)cc3[N+](=O)[O-])CC2)c1 | 4.11 (≈ 9.67 µM)
7 | Cc1cnc(-c2ccccc2C2COC2)nc1NCc1ccc(-n2ccnn2)cc1 | > 59
8 | O=C(N/N=C/c1ccc(O)c(O)c1)c1cc2ccccc2cc1O | 18.2 (≈ 56.5 µM)
9 | O=[S+]([O-])(Nc1cccc2ccccc12)c1ccc(NCc2ccc(Cl)cc2O)cc1 | < 1
10 | CC(=O)N1CCC2(CCCN(c3ccc(-c4ccccc4)cc3)C2)CC1 | < 1
11 | Cc1ccc(-c2cc(C(=O)Nc3cccc(S(N)(=O)=O)c3)c3ccccc3n2)cc1C | < 1
12 | COc1ccc(Cn2c(C(=O)O)c(CNCc3cccc(OC)c3)c3ccc(C)cc32)cc1 | 6.85 (≈ 15.4 µM)
13 | COc1ccc(CN2CCN(C(=O)c3cc4c(s3)CCC4)CC2)cc1 | > 53
14 | COC(=O)c1ccc(O)c2ncc(N3CCN(C)CC3)cc12 | > 30
15 | COC(=O)c1ccc([C@H]2c3[nH]c4ccccc4c3C[C@H](C(=O)OC)N2C(=O)CCl)cc1 | < 1
16 | CCS(=O)(=O)c1cccc(C(=O)Nc2ccc(-c3nc4ccccc4s3)c(O)c2)c1 | < 1
17 | O=C(Cc1ccc(O)cc1)N1CC(CNc2ccccc2)C2(C1)CN(c1ccccc1)C2 (centres undefined) | < 1
18 | CCC1=Nc2cc(C(=O)NC3CCCC3)ccc2Sc2ccc(Cl)cc21 | < 1
19 | Cn1cnc(S(=O)(=O)Nc2cnccc2C(=O)Nc2nc(-c3ccccc3)cs2)c1 | > 65
20 | CCc1ccc(NC(=O)c2[nH]c(C)c(C(C)=O)c2C)cc1S(=O)(=O)Nc1ccc(Br)cc1 | 7.72 (≈ 14.9 µM)
21 | O=C(Nc1cccc(Cc2ccccc2)n1)c1ccc(-c2cccc([N+](=O)[O-])c2)o1 | 2.73 (≈ 6.84 µM)
22 | Cc1cc(C)nc(NC(=S)N2CCN(c3cccc(OC(F)F)c3)CC2)c1 | 11.6 (≈ 29.4 µM)
23 | CCN1CCN(c2ccc(Nc3ccc(-c4ccc(C(N)=O)cc4)n4ncnc34)cc2)CC1 | > 65

Row | Structure (SMILES) | solubility kinetic [µg/mL]
24 | CC1=C(C(=O)Nc2ccc(Cl)cc2)C(c2ccccc2C)n2ncc(C(=O)Nc3ccc(C)cc3)c2N1 (centres undefined) | < 1
25 | CC(C)N(CCCNC(=O)Nc1ccc(C(C)(C)C)cc1)C[C@H]1O[C@@H](n2ccc3c(N)ncnc32)[C@H](O)[C@@H]1O | > 80
26 | Cc1cnc(-c2ccccc2C2COC2)nc1NCc1ccc(-c2cccnc2)cc1 | > 60
27 | c1ccc(CNc2cc3c(cn2)CN(Cc2cccnc2)CCN3)cc1 | 36.5 (≈ 106 µM)
28 | Oc1ccc(CNc2cccnc2)c2cccnc12 | 24.5 (≈ 97.5 µM)
29 | O=C(Cn1c2ncccc2c(=O)n1-c1ccccc1)Nc1ccc(Cl)cc1C(F)(F)F | < 1
30 | Cn1c(CN2CCCC2)nc2cc(NC(=O)COc3ccc(Cl)cc3)ccc21 | > 59
31 | Cc1c(C)n(Cc2ccc(-c3ccccc3C(=O)O)cc2)c2ccc(C(=O)N[C@@H](C)c3ccc([N+](=O)[O-])cc3)cc12 | 44 (≈ 80.3 µM)
32 | Cc1cc(F)ccc1-c1nc(NCCN=C(N)NC#N)nc2c1ccc(=O)n2-c1c(F)cccc1F | 39.5 (≈ 80.2 µM)
33 | CCn1cc(CNC(=O)c2cc(-c3ccc(C)cc3)nc3ccc(Br)cc23)c(C)n1 | < 1
34 | Cc1cccc(S(=O)(=O)Nc2cnccc2C(=O)Nc2nc(-c3ccccc3)cs2)c1 | 21.8 (≈ 48.3 µM)
35 | O=C(NC1CC1)c1ccc(CSCc2ccccc2Cl)o1 | > 47
36 | O=C(Cc1ccccc1)Nc1ccc(S(=O)(=O)Nc2nccs2)cc1 | > 55
37 | CC(C)(C)c1ccc(S(=O)(=O)c2cnc(SCC(=O)Nc3ccc(F)c(Cl)c3)[nH]c2=O)cc1 | 58.4 (≈ 114 µM)
38 | CC(C)c1ccccc1-c1ncc(F)c(NC(C)(C)c2ccc(-n3ccnn3)cc2)n1 | 1.14 (≈ 2.74 µM)
39 | CC(CNC(=O)C1CCN(Cc2cc3ccccc3n2Cc2ccccc2)CC1)c1ccccc1 (centres undefined) | 1.05 (≈ 2.25 µM)
40 | CN(C)C(=O)c1cc(-c2ccc(S(C)(=O)=O)cc2)c2cnn(C)c2n1 | > 53
41 | CCN(CC)c1ccc(Nc2nc(Cl)ncc2Br)cc1 | 4.94 (≈ 13.9 µM)
42 | Cn1c(=O)c2c(-c3ccc(Cl)cc3)n(CCc3ccccc3)cc2n(C)c1=O | 2.15 (≈ 5.46 µM)
43 | COc1ccc(CN2CCc3nc(N4CCN(c5ccc(F)cc5)CC4)ncc3C2)c(OC)c1OC | < 1
44 | CC1=C(C(=O)Nc2ccccc2)C(c2ccccc2Cl)N=C(Nc2nc3ccccc3o2)N1 (centres undefined) | < 1
45 | Cc1ccc(-c2cc(C(=O)Nc3ccc(C#N)cc3)c3ccccc3n2)cc1C | < 1
46 | O=C(Nc1nc(-c2ccc(F)cc2)cs1)c1ccncc1NS(=O)(=O)c1ccccc1Cl | < 1

Row | Structure (SMILES) | solubility kinetic [µg/mL]
47 | Cc1ccc(OCCn2c(CCNC(=O)c3ccc(Cl)cc3)nc3ccccc32)cc1 | < 1
48 | Cc1cc(F)c(C(=O)Nc2cccc(-c3nncn3C(C)C)n2)cc1-n1cnc(C2CC2)c1 | 49.8 (≈ 112 µM)
49 | Cc1cc(-c2nnc3n2CCCCC3)c(C)n1-c1ccc(C(C)(C)C)cc1 | 20.9 (≈ 57.6 µM)
50 | CC(C)c1ccc(-n2ncc3c(=O)n(CC(=O)Nc4cc(F)ccc4Cl)cnc32)cc1 | < 1
51 | COc1ncc(-c2ccc3c(Nc4cc(Oc5cc(F)cc(F)c5)cc(C(=O)O)c4)c(S(=O)(=O)NC4CC4)cnc3c2)c(OC)n1 | 21.5 (≈ 33.1 µM)
52 | CC(=O)N1CCN(c2ccc(OCc3nn(C)c(C)c3-c3cccc4c(CCCOc5cc(C)c(Cl)c(C)c5)c(C(=O)O)n(Cc5cccnc5)c34)cc2)CC1 | > 100
53 | CCOC(=O)c1[nH]c(C)c(CCC(=O)N2CCN(c3cccc(C)c3C)CC2)c1C | < 1
54 | OCCNc1ncnc2c1ncn2[C@@H]1O[C@@H](CO)[C@H](O)[C@@H]1O | > 46
55 | O=C(NC1CCCc2c1cnn2-c1ccc(F)cc1F)c1ccccc1 (centres undefined) | 4.29 (≈ 12.1 µM)
56 | CCOc1cc2ncc(C#N)c(Nc3ccc(OCc4ccccn4)c(Cl)c3)c2cc1NC(=O)/C=C/CN(C)C | < 1
57 | Cn1ccc2c(C(=O)NCC3CCC(=O)N3)nc(-c3ccccc3C#N)cc21 (centres undefined) | 52.4 (≈ 140 µM)
58 | Cc1ccc(NC(=O)C(Cc2ccccc2)NS(=O)(=O)c2cccs2)cc1Cl (centres undefined) | < 1
59 | CC(C)c1ccccc1-c1ncc(F)c(NC2(c3ccc(-c4cccnc4)cc3)CC2)n1 | < 1
60 | COc1ccc(-n2nc(C3CCCN(C(=O)Cc4ccc(F)cc4)C3)[nH]c2=O)cc1 (centres undefined) | > 61
61 | O=C(c1nc(-c2cccnc2)c2ccccn12)N1CCN(c2ncccn2)CC1 | 9.57 (≈ 24.8 µM)
62 | Cc1ccc(-c2nc3ccccc3o2)cc1NC(=O)COc1ccccc1 | < 1
63 | Cc1ccc(NS(=O)(=O)c2cc3c(cc2N[C@H](C)CO)NC(=O)CC3)cc1C | > 60
64 | CCOc1ccc(CCNC(=O)c2cc3sccc3n2Cc2ccc(-n3cncn3)cc2)cc1OCC | < 1
65 | Cc1[nH]c2ccccc2c1CN1CCN(c2ccccn2)CC1 | 34.4 (≈ 112 µM)
66 | NC(=O)C1CCN(c2nc(-c3ccccc3[N+](=O)[O-])cs2)CC1 | > 49
67 | Cc1cccc2c1NC(=O)/C2=C/c1cc(Cl)c(O)c(Cl)c1 | 10.1 (≈ 31.5 µM)
68 | COc1ccc(-c2nc(NC(C)c3ccccc3)c3ccccc3n2)cc1 (centres undefined) | < 1
69 | COC(=O)[C@H](NC(=O)c1cc(-c2ccccc2)nc2ccccc12)c1ccccc1 | < 1
